Results taken from US12268723B2, “Peptidomimetics for the treatment of coronavirus and picorna virus infections” (priority 2019, dated 2025).
Read-outs that look alike come from different tables or passages of the source.

Experiments:
HCoV (OC43) = test: In vitro assay for HCoV (OC43), virus yield reduction in Huh7 cells; format: cell-based; conditions: for inhibition at 10 µM: Betacoronavirus 1, OC43, Huh-7, 10 μM
Source text: In order to determine the potential effect of each selected compound against in vitro replication of SARS-CoV-2 in Vero cells or HCoV (OC43) in Huh7 cells, a confluent cell monolayer in a 96-wells cell culture microplate can be infected at a multiplicity of infection (MOI) of 0.1 and treated with a maximum non-toxic concentration (MNTC) of each compound. To assess the antiviral activity, a virus yield reduction assay using specific qRT-PCR for each virus can be performed.
Dose-Dependent Antiviral Assay. The antiviral effect of each compound selected through the antiviral evaluation assay can be further confirmed by virus yield reduction assay using the optimized qRT-PCR by measuring the RNA copy number for each virus in the supernatant of treated-infected cells. A positive control, such as remdesivir, can be used for each assay.
Statistical analysis. The half-maximal effective concentration (EC50) and the concentration with 90% of inhibitory effect (EC90) can be calculated using GraphPad PRISM for Windows, version 5 (GraphPad Software Inc., San Diego, CA, 2005) or the Chou and Talalay Method.
These methods were used to evaluate certain of the compounds described herein.

SARS-CoV-2 = test: microbe, parasite or virus in culture; format: cell-based; conditions: for inhibition at 10 µM: read-out: SARS-CoV-2 Inhibition at 10 μM (%)
[1] = Severe acute respiratory syndrome coronavirus 2, Vero

Structure (SMILES)	inhibition at 10 µM (HCoV (OC43)) [%]	inhibition at 10 µM (SARS-CoV-2; Severe acute respiratory syndrome coronavirus 2, 10 μM, Vero cells) [%]	inhibition at 10 µM (SARS-CoV-2; [1]) [%]	OC43 Inhibition at 10 μM (%) (HCoV (OC43); 10 μM)	SARS-CoV-2 Inhibition at 10 μM (%) (SARS-CoV-2; 10 μM, Vero cells)
CC(C)C[C@H](NC(=O)[C@H](Cc1cccc2ccccc12)NC(=O)OCc1ccccc1)C(=O)N[C@H](/C=C(\C#N)C(N)=O)C[C@@H]1CCCNC1=O [Compound 36, Benzyl ((S)-1-(((S)-1-(((S,E)-5-amino-4-cyano-5-oxo-1-((S)-2-oxopiperidin-3-yl)pent-3-en-2-yl)amino)-4-methyl-1-oxopentan-2-yl)amino)-3-(naphthalen-1-yl)-1-oxopropan-2-yl)carbamate]	99.9	99.8	–	–	–
CC(C)CC(NC(=O)[C@H](Cc1cccc2ccccc12)NC(=O)OCc1ccccc1)C(=O)N[C@@H](C[C@@H]1CCNC1=O)C1OCCO1 (stereo partly shown) [Compound 136]	99.3	–	99.8	–	–
CC(C)C[C@H](NC(=O)[C@H](Cc1cccc2ccccc12)NC(=O)OCc1ccccc1)C(=O)N[C@@H](C[C@@H]1CCCNC1=O)[C@H](O)C#N [Compound 129, benzyl ((S)-1-(((S)-1-(((1S,2S)-1-cyano-1-hydroxy-3-((S)-2-oxopiperidin-3-yl)propan-2-yl)amino)-4-methyl-1-oxopentan-2-yl)amino)-3-(naphthalen-1-yl)-1-oxopropan-2-yl)carbamate]	–	–	–	99.9	99.9
CCOC(=O)/C=C/[C@H](C[C@@H]1CCCNC1=O)NC(=O)C(CC(C)C)NC(=O)[C@H](Cc1cccc2ccccc12)NC(=O)c1cc(C)on1 (stereo partly shown) [Compound 44]	99.7	–	99.5	–	–
Cc1cc(C(=O)NC(CC(C)C)C(=O)N[C@H](C=O)C[C@@H]2CCCNC2=O)no1 (stereo partly shown) [Compound 43]	99.9	–	99.9	–	–
